This test concerns the target full-length human His-tagged BTK (Homo sapiens (Human), UniProt Q06187). The experiment in a line: BTK Assay (HTRF, Cisbio KinEASE-TK). The following applies: 6 nM BTK, 30 uM ATP, 15 min preincubation. The format is biochemical. For orientation: TR-FRET usually uses a lanthanide donor and a delayed reading to cut background.

Structures are written as SMILES.

Chain of full-length human His-tagged BTK (Q06187 whole entry): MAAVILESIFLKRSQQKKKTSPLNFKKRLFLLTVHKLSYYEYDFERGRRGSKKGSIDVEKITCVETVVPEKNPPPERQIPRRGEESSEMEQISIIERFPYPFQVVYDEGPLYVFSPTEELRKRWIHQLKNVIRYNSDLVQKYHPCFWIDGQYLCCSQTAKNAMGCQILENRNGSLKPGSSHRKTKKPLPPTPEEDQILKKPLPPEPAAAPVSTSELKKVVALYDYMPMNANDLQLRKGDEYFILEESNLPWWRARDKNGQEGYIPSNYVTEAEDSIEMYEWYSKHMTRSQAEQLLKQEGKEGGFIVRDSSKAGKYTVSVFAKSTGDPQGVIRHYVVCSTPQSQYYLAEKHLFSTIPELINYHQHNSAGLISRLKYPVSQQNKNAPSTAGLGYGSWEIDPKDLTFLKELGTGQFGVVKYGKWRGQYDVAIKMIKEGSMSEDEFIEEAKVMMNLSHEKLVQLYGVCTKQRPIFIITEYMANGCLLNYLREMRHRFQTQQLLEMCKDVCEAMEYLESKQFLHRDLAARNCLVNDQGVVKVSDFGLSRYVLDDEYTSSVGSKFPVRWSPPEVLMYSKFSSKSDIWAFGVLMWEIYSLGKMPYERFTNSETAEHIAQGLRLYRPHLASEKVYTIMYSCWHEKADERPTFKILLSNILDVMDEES
Procedure: An HTRF assay (Cisbio KinEASE-TK cat #62TKOPEC) was performed to quantitate the ability of test compounds to inhibit BTK mediated phosphorylation of substrate. Assays were assembled in 384 well plates where 6 nM of full-length human His-tagged BTK (Life Technologies cat # PV3587) and test compound at varying concentrations were preincubated for 15 minutes at 28° C. Then, 1 uM of TK substrate-biotin and 30 uM ATP were added and incubated for an additional 30 minutes at 28° C.

By IC50 is commonly meant the concentration that gives 50% inhibition. The low end stands for higher potency, the high end for lower potency. As to `C=CC(=O)N1CCC[C@@H](n2cc(C(N)=O)c(-c3ccc4occc4c3)n2)C1` [Example 16], the IC50 worked out at 580 nM. The figure for `C=CC(=O)N1CCC[C@@H](n2cc(C(N)=O)c(-c3ccc(Oc4ccc(C(F)(F)F)cc4)cc3)n2)C1` [Example 63] is 660 nM.

`C=CC(=O)N1CC[C@]2(C1)C[C@@H](n1nc(-c3ccc(Oc4ccccc4)nc3)c(C(N)=O)c1N)C2` [Example 114] displayed an IC50 of 3.4 nM. Against the preceding molecule, the IC50 is about 190-fold lower. In the case of `NC(=O)c1c(-c2ccc(Oc3ccccc3)cc2)nn([C@H]2C[C@]3(CCN(C(=O)/C=C/CN4CCOCC4)C3)C2)c1N` [Example 99], 3.2 nM corresponded to half-maximal inhibition (IC50). The IC50 values of the last two molecules are within 1.5-fold of each other. With `C=CC(=O)N1CC2(CC(n3nc(-c4ccc(OCCC)cc4)c(C(N)=O)c3N)C2)C1` [Example 111], the IC50 was determined as 16 nM. Against the preceding molecule, the IC50 is about 5-fold higher. Consider `C=CC(=O)N1CC[C@]2(C1)C[C@H](n1nc(-c3ccc(OC(F)(F)F)cc3)c(C(N)=O)c1N)C2` [Example 162], for which the IC50 is 9.2 nM. Molecule `C=CC(=O)N1CC2(CC(n3nc(-c4ccc(Oc5ccccc5)cn4)c(C(N)=O)c3N)C2)C1` [Example 103] registered an IC50 of 2.8 nM. Regarding `CC#CC(=O)N1CCCC(Cn2cc(C(N)=O)c(-c3ccc(Oc4ccccc4)cc3)n2)C1` (centres unmarked) [Example 48], the IC50 was 90 nM. This IC50 lies about 32-fold higher than the previous one. `C=CC(=O)N1CCC[C@@H](n2cc(C(N)=O)c(-c3ccc(Oc4ccc(Cl)cc4)cc3)n2)C1` [Example 70] came in with an IC50 of 45 nM. For `CC#CC(=O)N1CC[C@]2(C1)C[C@@H](n1nc(-c3ccc(Oc4ccccc4)cc3)c(C(N)=O)c1N)C2` [Example 92] the value was 0.89 nM; for `CC#CC(=O)N1CC[C@]2(C1)C[C@H](n1nc(-c3ccc(F)c(OCC(F)(F)F)c3)c(C(N)=O)c1N)C2` [Example 137], 1.6 nM; for `C=CC(=O)N1CC2(CC(n3nc(-c4ccc(OC5CCOC5)cc4)c(C(N)=O)c3N)C2)C1` (centres unmarked) [Example 134], 120 nM. For `CC#CC(=O)N1CC[C@]2(C1)C[C@@H](n1nc(-c3ccc(Oc4ccccc4)nc3)c(C(N)=O)c1N)C2` [Example 122], it took 17 nM to reach half-maximal inhibition (IC50).

In turn, `C=CC(=O)N1CCC2(CC1)CC(c1nc(-c3ccc(Oc4ccccc4)cc3)c(C(N)=O)s1)C2` [Example 84] came in with an IC50 of 52 nM. With `C=CC(=O)N1CCC[C@@H](n2cc(C(N)=O)c(-c3ccc(Oc4cccc(F)c4)cc3)n2)C1` [Example 73], the IC50 came out at 9.3 nM. The figure for `CC#CC(=O)N1CC[C@]2(C1)C[C@H](n1nc(-c3ccc(Oc4ccccn4)cc3)c(C(N)=O)c1N)C2` [Example 151] is 0.7 nM.

`C=CC(=O)N1CC[C@]2(C1)C[C@@H](c1nc(-c3ccc(Oc4ccccc4)cc3)c(C(N)=O)s1)C2` [Example 79] gave an IC50 of 6.4 nM. `C=CC(=O)N1CCC[C@@H](n2cc(C(N)=O)c(-c3ccc(Oc4ccccc4F)cc3)n2)C1` [Example 96] gave a half-maximal inhibitory concentration (IC50) of 4.8 nM. This IC50 and that of the molecule before are within 1.5-fold of each other. For `C=CC(=O)N1CCC[C@@H](n2cc(C(N)=O)c(-c3ccc(Oc4ccccc4)c(F)c3)n2)C1` [Example 23], 10 nM corresponded to half-maximal inhibition (IC50).

`C=CC(=O)N1CCC[C@@H](c2nc(-c3ccc(Oc4ccccc4)cc3)c(C(N)=O)s2)C1` [Example 51] returned an IC50 of 1.7 nM. `C=CC(=O)N1CCC[C@@H](n2cc(C(N)=O)c(-c3ccc(C(=O)N4CCCCC4)cc3)n2)C1` [Example 94] registered an IC50 of 8200 nM. With `CC#CC(=O)N1CC2(CC(n3nc(-c4ccc(OCCC)c(F)c4)c(C(N)=O)c3N)C2)C1` [Example 138], the IC50 amounted to 2.2 nM. Take `CC#CC(=O)N1CCC2(CC1)CC(n1nc(-c3ccc(Oc4ccccc4)cc3)c(C(N)=O)c1N)C2` [Example 83]: the IC50 came to 2.1 nM. The IC50 values of the last two molecules are within 1.5-fold of each other. The molecule `C=CC(=O)N1CC[C@]2(C1)C[C@H](n1nc(-c3ccc(Oc4ccccn4)cc3)c(C(N)=O)c1N)C2` [Example 152] returned an IC50 of 1.5 nM. For the molecule `CC#CC(=O)N1CC2(CC(n3nc(-c4ccc(OC(F)(F)F)cc4)c(C(N)=O)c3N)C2)C1` [Example 108], inhibition was half-maximal at 14 nM (IC50). Turning to `CC#CC(=O)N1CC[C@]2(C1)C[C@H](n1nc(-c3ccc(Oc4ccccc4)cc3)c(C(N)=O)c1N)C2` [Example 91], the IC50 came out at 0.79 nM. Against the preceding molecule, the IC50 is about 18-fold lower.

`C=CC(=O)N1CCC(Cn2cc(C(N)=O)c(-c3ccc(Oc4ccccc4)cc3)n2)CC1` [Example 47] yielded an IC50 of 10 nM. In turn, `C=CC(=O)N1CCC[C@@H](n2cc(C(N)=O)c(-c3ccc(NS(=O)(=O)c4cccc(Cl)c4Cl)cc3)n2)C1` [Example 61] registered an IC50 of 780 nM. Turning to `C=CC(=O)N1CCC[C@@H](n2cc(C(N)=O)c(-c3ccc(Oc4ccccc4)cc3)n2)C1` [Example 29], it took 3.2 nM to reach half-maximal inhibition (IC50). `C=CC(=O)N1CCC[C@@H](n2cc(C(N)=O)c(-c3ccc(Oc4cccc(Cl)c4)cc3)n2)C1` [Example 68] gave a half-inhibitory concentration (IC50) of 41 nM. This IC50 is about 13-fold higher than that of the molecule before. `C=CC(=O)N1CC2(CC(n3nc(-c4ccc(OCC5CC5)cc4)c(C(N)=O)c3N)C2)C1` [Example 104]: it took 19 nM to reach half-maximal inhibition (IC50). Consider `C=CC(=O)N1CCC[C@@H](n2cc(C(N)=O)c(-c3ccc(Oc4ccccc4)c(OC)c3)n2)C1` [Example 22], for which half-maximal inhibition (IC50) required 7.6 nM. `C=CC(=O)N1CCC[C@@H](n2cc(C(N)=O)c(-c3ccc(Oc4ccc(Cl)c(F)c4)cc3)n2)C1` [Example 66] registered an IC50 of 43 nM. This IC50 lies about 5.7-fold higher than the previous one. In turn, `C=CC(=O)N1CC[C@]2(C1)C[C@H](n1nc(-c3ccc(F)c(OCC(F)(F)F)c3)c(C(N)=O)c1N)C2` [Example 146] had an IC50 of 22 nM. Consider `C=CC(=O)N1CC[C@]2(C1)C[C@@H](n1nc(-c3ccc(OCCC)cc3)c(C(N)=O)c1N)C2` [Example 126], for which half-maximal inhibition (IC50) required 28 nM. The IC50 values of the last two molecules are within 1.5-fold of each other. Molecule `C=CC(=O)N1CCC[C@@H](n2cc(C(N)=O)c(-c3cccc(OCc4ccccc4)c3)n2)C1` [Example 3] returned an IC50 of 810 nM. For `C=CC(=O)N1CC2(CC(n3nc(-c4ccc(OC(C)C)c(Cl)c4)c(C(N)=O)c3N)C2)C1` [Example 124], the concentration for half-maximal inhibition (IC50) stood at 10 nM. Take `CC#CC(=O)N1CC[C@]2(C1)C[C@@H](n1nc(-c3ccc(C(F)(F)F)cc3)c(C(N)=O)c1N)C2` [Example 129]: the 50% inhibitory concentration (IC50) amounted to 29 nM. This IC50 is about 2.9-fold higher than that of the molecule before. The molecule `C=CC(=O)N1CC2(CC(n3nc(-c4ccc(OC(F)(F)F)cc4)c(C(N)=O)c3N)C2)C1` [Example 109] came in with a 50% inhibitory concentration (IC50) of 24 nM. Consider `C=CC(=O)N1CCC[C@@H](n2cc(C(N)=O)c(-c3ccc(Oc4ccc(S(C)(=O)=O)cc4)cc3)n2)C1` [Example 64], for which inhibition was half-maximal at 6500 nM (IC50). `C=CC(=O)N1CCC[C@@H](n2cc(C(N)=O)c(-c3ccc(Oc4ccc(C)cc4)cc3)n2)C1` [Example 71] gave an IC50 of 14 nM. For the molecule `C=CC(=O)N1CCC[C@@H](n2cc(C(N)=O)c(-c3ccc(Oc4ccc(Cl)c(Cl)c4)c(OC)c3)n2)C1` [Example 20], the IC50 was determined as 30 nM. `C=CC(=O)N1CCC[C@@H](n2cc(C(N)=O)c(-c3ccc(OCc4ccccc4)cc3)n2)C1` [Example 2] showed a half-inhibitory concentration (IC50) of 33 nM.

For `C=CC(=O)N1CC[C@]2(C1)C[C@@H](n1nc(-c3ccc(C(F)(F)F)cc3)c(C(N)=O)c1N)C2` [Example 131], 28 nM corresponded to half-maximal inhibition (IC50). In turn, `CC#CC(=O)N1CC2(CC(n3nc(-c4ccc(OCCC)c(Cl)c4)c(C(N)=O)c3N)C2)C1` [Example 148] gave an IC50 of 3 nM. The figure for `C=CC(=O)N1CCC2(CC(n3nc(-c4ccc(OCCC)cc4)c(C(N)=O)c3N)C2)C1` (single isomer, unassigned) [Example 125] is 7.5 nM; for `CC#CC(=O)N1CC2(CC(c3nc(-c4ccc(Oc5ccccc5)cc4)c(C(N)=O)s3)C2)C1` [Example 58] it is 1.1 nM; for `CC#CC(=O)N1CCC(Cn2cc(C(N)=O)c(-c3ccc(Oc4ccccc4)cc3)n2)C1` (centres unmarked) [Example 43] it is 51 nM. The molecule `NC(=O)c1c(-c2ccc(Oc3ccccc3)cc2)nn(C2CC3(C2)CN(C(=O)/C=C/CN2CCOCC2)C3)c1N` [Example 77] showed an IC50 of 1.9 nM. As for `C=CC(=O)N1CCC[C@@H](n2cc(C(N)=O)c(-c3ccc(Oc4cccc(C)c4)cc3)n2)C1` [Example 72], the IC50 amounted to 4 nM. As to `CC#CC(=O)N1CC[C@]2(C1)C[C@@H](n1nc(-c3ccc(Oc4ccccc4)cn3)c(C(N)=O)c1N)C2` [Example 119], the IC50 was determined as 11 nM. The molecule `CC#CC(=O)N1CC[C@]2(C1)C[C@H](n1nc(-c3ccc(OC)cc3)c(C(N)=O)c1N)C2` [Example 154] displayed an IC50 of 0.6 nM. In turn, `CN(C)C/C=C/C(=O)N1CC2(CC(n3nc(-c4ccc(Oc5ccccc5)cc4)c(C(N)=O)c3N)C2)C1` [Example 100] showed an IC50 of 0.8 nM. With `C=CC(=O)N1CC2(CC(n3nc(-c4ccc(F)c(C(F)(F)F)c4)c(C(N)=O)c3N)C2)C1` [Example 144], inhibition was half-maximal at 72 nM (IC50). `C=CC(=O)N1CCC[C@@H](n2cc(C(N)=O)c(-c3ccc(NC(=O)Nc4cccc(C)c4)cc3)n2)C1` [Example 60] gave a 50% inhibitory concentration (IC50) of 41 nM. Consider `CN(C)C/C=C/C(=O)N1CC[C@]2(C1)C[C@H](n1cc(C(N)=O)c(-c3ccc(Oc4ccccc4)cc3)n1)C2` [Example 37], for which the IC50 was determined as 38 nM. This IC50 and that of the molecule before are within 1.5-fold of each other. For the molecule `C=CC(=O)N1CCCC(Cn2cc(C(N)=O)c(-c3ccc(Oc4ccccc4)cc3)n2)C1` (centres unmarked) [Example 45], the IC50 is 10 nM. For the molecule `C=CC(=O)N1CCC[C@@H](n2cc(C(N)=O)c(-c3ccc(Oc4cccc(C#N)c4)cc3)n2)C1` [Example 76], inhibition was half-maximal at 61 nM (IC50).

Molecule `C=CC(=O)N1CCC[C@@H](n2cc(C(N)=O)c(-c3ccc(Oc4ccc(C#N)cc4)cc3)n2)C1` [Example 75] showed an IC50 of 6600 nM. The molecule `CC#CC(=O)N1CC2(CC(n3nc(-c4ccc(C(F)(F)F)c(F)c4)c(C(N)=O)c3N)C2)C1` [Example 141] had a half-maximal inhibitory concentration (IC50) of 14 nM. For `CNC(=O)/C=C/CN1CCC[C@@H](n2cc(C(N)=O)c(-c3ccc(Oc4ccccc4)cc3)n2)C1` [Example 90] the value was 90 nM. On to `CC#CC(=O)N1CC[C@]2(C1)C[C@H](n1nc(-c3ccc(Oc4ccccc4)nc3)c(C(N)=O)c1N)C2` [Example 150], for which inhibition was half-maximal at 0.8 nM (IC50).

Consider `CC#CC(=O)N1CC2(CC(n3nc(-c4ccc(Cl)c(C(F)(F)F)c4)c(C(N)=O)c3N)C2)C1` [Example 136], for which the midpoint of inhibition, the IC50, lay at 14 nM. As to `C=CC(=O)N1CCC[C@@H](n2cc(C(N)=O)c(-c3ccc(OCc4ccccn4)c(Cl)c3)n2)C1` [Example 21], half-maximal inhibition (IC50) required 98 nM. Consider `C=CC(=O)N1CC2(CC(n3nc(-c4ccc(Cl)c(C(F)(F)F)c4)c(C(N)=O)c3N)C2)C1` [Example 135], for which the IC50 is 26 nM.

The values are drawn from patent US10138229B2, “Heteroaromatic compounds as BTK inhibitors” (Boehringer Ingelheim International GmbH, priority 2012, dated 2018).
